# pIC50: −log10 of the molar value.
# Test system: PC-3
# Assay: Antiproliferative activity against human PC3 cells
# Assay type: functional, cell-based
row,SMILES,pIC50
1,CN1CCN(c2ccc(NC(=O)Nc3ccc(-c4nc(N5CCOCC5)nc(N5C6CCC5COC6)n4)cc3)cc2)CC1,7.40
2,Cc1ccc(NC(=O)Nc2ccc(-c3nc(N4CCOCC4)nc(N4C5CCC4COC5)n3)cc2)cc1,6.52
3,O=C(Nc1ccc(-c2nc(N3CCOCC3)nc(N3C4CCC3COC4)n2)cc1)Nc1cccnc1,7.01
4,O=C(Nc1ccc(CCO)cc1)Nc1ccc(-c2nc(N3CCOCC3)nc(N3C4CCC3COC4)n2)cc1,7.52
5,O=C(Nc1ccc(F)cc1)Nc1ccc(-c2nc(N3CCOCC3)nc(N3C4CCC3COC4)n2)cc1,6.75

# Test system: MDA-MB-361
# Assay: Antiproliferative activity against human MDA-MB-361 cells
# Assay type: functional, cell-based
row,SMILES,pIC50
1,CN1CCN(c2ccc(NC(=O)Nc3ccc(-c4nc(N5CCOCC5)nc(N5C6CCC5COC6)n4)cc3)cc2)CC1,7.46
2,Cc1ccc(NC(=O)Nc2ccc(-c3nc(N4CCOCC4)nc(N4C5CCC4COC5)n3)cc2)cc1,6.78
3,O=C(Nc1ccc(-c2nc(N3CCOCC3)nc(N3C4CCC3COC4)n2)cc1)Nc1cccnc1,7.14
4,O=C(Nc1ccc(CCO)cc1)Nc1ccc(-c2nc(N3CCOCC3)nc(N3C4CCC3COC4)n2)cc1,7.66
5,O=C(Nc1ccc(F)cc1)Nc1ccc(-c2nc(N3CCOCC3)nc(N3C4CCC3COC4)n2)cc1,7.01

# Target: Serine/threonine-protein kinase mTOR (Homo sapiens, UniProt P42345)
# Assay: Inhibition of mTOR
row,SMILES,pIC50
1,CN1CCN(c2ccc(NC(=O)Nc3ccc(-c4nc(N5CCOCC5)nc(N5C6CCC5COC6)n4)cc3)cc2)CC1,8.96
2,O=C(Nc1ccc(F)cc1)Nc1ccc(-c2nc(N3CCOCC3)nc(N3C4CCC3COC4)n2)cc1,8.72
